Laboratory results as given in US20240190872A1, “FABI INHIBITORS FOR GRAM-NEGATIVE PATHOGENS” (THE BOARD OF TRUSTEES OF THE UNIVERSITY OF ILLINOIS, priority 2021, published 2024).
In brackets after ≈: the same amount, converted by molar mass. Read-outs that look alike come from different tables or passages of the source.

What was measured:
S. aureus ATCC 29213 = assay: Antimicrobial susceptibility test (MIC), micro-dilution broth; assay type: cell-based; settings: Staphylococcus aureus, ATCC29213
Summary of the method: (§1)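 CLSI micro-dilution broth method in cation-adjusted Mueller-Hinton broth, in biological triplicate; human serum (pooled, filtered) was also used.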

E. coli ΔtolC (JW5503) = assay type: cell-based
Summary of the method: (§2)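 MICs by CLSI broth microdilution in cation-adjusted Mueller-Hinton broth, performed in biological triplicate. Strains: efflux-deficient E. coli ΔtolC (JW5503, KEIO collection) and K. pneumoniae BAA-2472 (ATCC).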

E. coli MG1655 = assay: Antimicrobial susceptibility test (MIC); assay type: cell-based; settings: Escherichia coli, MG1655
Summary of the method: as §1

K. pneumoniae BAA 2472 = assay: microbe, parasite or virus in culture; assay type: cell-based; settings: Klebsiella pneumoniae, BAA2472, read-out: MIC K. pneumoniae BAA 2472
Summary of the method: as §2

A. baumannii AR 0033 = assay: microbe, parasite or virus in culture; assay type: cell-based; settings: Acinetobacter baumannii, AR0033, read-out: MIC A. baumannii AR 0033
Summary of the method: (§3)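 Susceptibility values come from triplicate biological repeats of a CLSI-style broth dilution assay using cation-adjusted Mueller-Hinton medium.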

A. baumannii AR 0273 = assay: microbe, parasite or virus in culture; assay type: cell-based; settings: Acinetobacter baumannii, AR0273, read-out: MIC A. baumannii AR 0273
Summary of the method: as §3

A. baumannii AR 0299 = assay: microbe, parasite or virus in culture; assay type: cell-based; settings: Acinetobacter baumannii, AR0299, read-out: MIC A. baumannii AR 0299
Summary of the method: as §3

A. baumannii AR 0313 = assay: microbe, parasite or virus in culture; assay type: cell-based; settings: Acinetobacter baumannii, AR0313, read-out: MIC A. baumannii AR 0313
Summary of the method: as §3

E. coli AR 0048 = assay: microbe, parasite or virus in culture; assay type: cell-based; settings: Escherichia coli, AR0048, read-out: MIC E. coli AR 0048
Summary of the method: as §3

E. coli AR 0085 = assay: microbe, parasite or virus in culture; assay type: cell-based; settings: Escherichia coli, AR0085, read-out: MIC E. coli AR 0085
Summary of the method: as §3

K. pneumoniae AR 0066 = assay: microbe, parasite or virus in culture; assay type: cell-based; settings: Klebsiella pneumoniae, AR0066, read-out: MIC K. pneumoniae AR 0066
Summary of the method: as §3

K. pneumoniae AR 0113 = assay: microbe, parasite or virus in culture; assay type: cell-based; settings: Klebsiella pneumoniae, AR0113, read-out: MIC K. pneumoniae AR 0113
Summary of the method: as §3

K. pneumoniae AR 0560 = assay: microbe, parasite or virus in culture; assay type: cell-based; settings: Klebsiella pneumoniae, AR0560, read-out: MIC K. pneumoniae AR 0560
Summary of the method: as §3

A. baumannii FabI = A. baumannii FabI (Acinetobacter baumannii, UniProt D0CAD5); assay: biochemical; settings: purified FabI, apparent inhibition constant; read-out: A. baumannii FabI Ki^app
Protocol: Mode of Action. To probe the effects of varying ring systems and amine placement on FabI target engagement, the apparent inhibition constants (Ki^app) for select compounds were determined using purified FabI. The goal of these studies was two-fold, to comparatively assess fabimycin, Debio-1452-NH3, and Debio-1452, and to also assess differential activity against the E. coli and A. baumannii versions of FabI. FabI from E. coli and A. baumannii were recombinantly expressed and purified, and the ability for each compound to inhibit the activity of these enzymes was evaluated using a standard FabI enzyme assay.
In vitro FabI inhibition assay. NADH (Sigma-Aldrich, Cat# N8129) and crotonoyl-CoA (Sigma-Aldrich, Cat# 28007) were both diluted into activity buffer [100 mM potassium glutamate (pH 7.8)], and working solution was dispensed into two columns of round-bottom 96-well plate (330 μL per well). Inhibitors, dissolved in DMSO at 200× final concentration, were added to each well via multichannel pipette (2.48 μL per well). After thorough mixing, this mixture was transferred to UV-transparent plate (UV-STAR half-area 96-well plate, Greiner Bio-One, Cat#675801, 100 μL per well, three technical replicates per inhibitor concentration). Plate was placed in plate-reader (SpectraMax 190, Molecular Devices) under temperature control (25° C.), and temperature was allowed to equilibrate. Fresh aliquot of enzyme from −80° C. was thawed on ice and diluted in activity buffer. Enzyme working solution was added to plate (50 μL per well, 20 nM enzyme final). After shaking for 5 s, reaction progress was monitored by absorbance at 340 nm every 15 s for 90 min. Linear portion of reaction progress curve was fit using plate-reader software (SoftMax Pro 7.0). Percent activity was calculated relative to DMSO-only and no-enzyme controls in each plate. Percent activity curves were fit to Morrison's quadratic using Graphpad Prism 6.0 to obtain apparent Ki.

H. sapiens HFF-1 = assay: In-vitro cytotoxicity; assay type: cell-based
H. sapiens A549 = assay: In-vitro cytotoxicity; assay type: cell-based
in vitro [1] = settings: mouse, plasma
in vitro [2] = settings: human, plasma
HERG = HERG (Homo sapiens (Human), UniProt Q12809); assay: cell-based
E. coli ATCC 25922 = assay: MIC; assay type: cell-based; settings: Escherichia coli, ATCC25922; line under drawing, Table 8-1

Chain of A. baumannii FabI (D0CAD5 1-288): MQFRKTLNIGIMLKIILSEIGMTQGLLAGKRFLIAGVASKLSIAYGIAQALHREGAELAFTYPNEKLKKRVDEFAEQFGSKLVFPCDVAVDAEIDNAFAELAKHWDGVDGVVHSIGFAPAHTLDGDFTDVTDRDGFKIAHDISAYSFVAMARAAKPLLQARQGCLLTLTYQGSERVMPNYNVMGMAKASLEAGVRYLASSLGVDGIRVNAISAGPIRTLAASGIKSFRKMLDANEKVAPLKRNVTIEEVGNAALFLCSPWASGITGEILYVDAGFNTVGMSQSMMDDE
Chain of HERG (Q12809 whole entry): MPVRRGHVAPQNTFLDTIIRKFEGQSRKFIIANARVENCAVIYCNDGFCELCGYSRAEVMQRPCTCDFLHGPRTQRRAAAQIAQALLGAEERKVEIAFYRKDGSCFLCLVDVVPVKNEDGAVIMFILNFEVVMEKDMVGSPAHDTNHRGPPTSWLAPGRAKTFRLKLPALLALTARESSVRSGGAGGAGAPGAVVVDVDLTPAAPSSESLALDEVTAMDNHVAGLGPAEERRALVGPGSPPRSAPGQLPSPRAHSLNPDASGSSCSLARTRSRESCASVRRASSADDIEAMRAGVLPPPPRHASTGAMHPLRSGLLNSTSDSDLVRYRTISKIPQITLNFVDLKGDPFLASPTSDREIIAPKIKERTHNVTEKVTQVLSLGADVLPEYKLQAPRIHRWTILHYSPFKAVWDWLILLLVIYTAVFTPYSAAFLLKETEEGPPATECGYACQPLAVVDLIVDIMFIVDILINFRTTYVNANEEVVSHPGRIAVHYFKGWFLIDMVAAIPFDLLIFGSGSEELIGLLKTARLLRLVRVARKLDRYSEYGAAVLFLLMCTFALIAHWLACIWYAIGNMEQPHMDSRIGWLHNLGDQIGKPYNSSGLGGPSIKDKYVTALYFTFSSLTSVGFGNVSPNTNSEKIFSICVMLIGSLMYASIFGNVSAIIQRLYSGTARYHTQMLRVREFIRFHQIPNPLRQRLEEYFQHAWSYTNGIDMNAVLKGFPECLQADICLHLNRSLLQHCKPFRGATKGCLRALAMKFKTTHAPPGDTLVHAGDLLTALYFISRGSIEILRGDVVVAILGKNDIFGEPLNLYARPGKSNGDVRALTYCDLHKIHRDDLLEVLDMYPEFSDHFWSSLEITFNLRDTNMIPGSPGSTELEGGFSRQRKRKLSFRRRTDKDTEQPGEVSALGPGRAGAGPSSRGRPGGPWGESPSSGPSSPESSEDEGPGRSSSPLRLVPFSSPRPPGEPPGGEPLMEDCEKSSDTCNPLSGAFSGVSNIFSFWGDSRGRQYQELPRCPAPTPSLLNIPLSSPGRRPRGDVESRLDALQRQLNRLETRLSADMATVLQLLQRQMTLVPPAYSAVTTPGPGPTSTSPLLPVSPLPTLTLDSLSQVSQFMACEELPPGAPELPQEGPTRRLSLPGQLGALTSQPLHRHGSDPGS

## Cc1c(CN(C)C(=O)/C=C/c2cnc3c(c2)CCC(=O)N3)oc2ccccc12 [Debio-1452, (E)-N-methyl-N-((3-methylbenzofuran-2-yl)methyl)-3-(7-oxo-5,6,7,8-tetrahydro-1,8-naphthyridin-3-yl)acrylamide, reference compound]
S. aureus ATCC 29213; S. aureus ATCC 29213, read-out: MIC S. aureus 29213
  MIC: 0.008 µg/mL (≈ 0.0213 µM)
E. coli ΔtolC (JW5503); efflux deficient E. coli ΔtolC
  MIC E. coli ΔtolC: 0.062 µg/mL (≈ 0.165 µM)
E. coli MG1655
  MIC: > 32 µg/mL
K. pneumoniae BAA 2472
  MIC: > 32 µg/mL
A. baumannii AR 0033
  MIC: > 32 µg/mL
A. baumannii AR 0273
  MIC: > 32 µg/mL
A. baumannii AR 0299
  MIC: > 32 µg/mL
A. baumannii AR 0313
  MIC: > 32 µg/mL
E. coli AR 0048
  MIC: > 32 µg/mL
E. coli AR 0085
  MIC: > 32 µg/mL
K. pneumoniae AR 0066
  MIC: > 32 µg/mL
K. pneumoniae AR 0113
  MIC: > 32 µg/mL
K. pneumoniae AR 0560
  MIC: > 32 µg/mL
A. baumannii FabI
  Ki: 0.799 ± 0.229 µM
H. sapiens HFF-1
  inhibition at 30 µM: 18 ± 6%
H. sapiens HFF-1; cytotoxicity
  IC50: 165 ± 42 µM
H. sapiens A549
  inhibition at 30 µM: 13 ± 6%
H. sapiens A549; cytotoxicity
  IC50: 166 ± 12 µM
In vitro [1]
  fraction unbound: 0.006
In vitro [2]
  fraction unbound: 0.019
HERG
  IC50: 5.5 µM

## O=C1CCc2cc(/C=C/C(=O)N3CC4C=C(c5ccccc5)CC4C3)cnc2N1 (stereo not drawn) [reference compound]
S. aureus ATCC 29213; line under drawing, Table 8-1, read-out: MIC S. aureus ATCC 29213
  MIC: 0.016 µg/mL (≈ 0.0415 µM)
E. coli ΔtolC (JW5503); line under drawing, Table 8-1
  MIC E. coli ΔtolC mutant: MIC E. coli ΔtolC mutant = ≤0.03 ug/mL
E. coli ATCC 25922
  MIC: > 32 µg/mL
